Measurements as given in patent US10143667B2, “Ceramide-like function imparting agent” (KAO CORPORATION, priority 2013, dated 2018).

Key:
[1] = Evaluation of lamellar-formation ability (X-ray diffraction); assay type: physicochemical; design: key to Evaluation of X-ray diffraction measurement: wide-angle X-ray measurement: A: diffraction peaks originating from crystals of stearic acid and cholesterol disappeared and only the peaks originating from a lamellar structure were observed near 2θ=22°; B: diffraction peaks originating from crystals of stearic acid and cholesterol remained but peaks originating approximately from a lamellar structure were observed; C: peaks originating from a lamellar structure were observed only partly; D: no peaks originating from a lamellar structure were observed; key to Evaluation of X-ray diffraction measurement: small-angle X-ray measurement: E: diffraction peaks originating from a periodic structure of lamellar structure were observed; F: no diffraction peaks were observed; conditions: equimolar mixture of stearic acid, cholesterol and sample, 30 wt % ion-exchange water
Experimental: Evaluation of lamellar-formation ability was conducted according to the method by Mizushima et al. (Lipids, 30(4), 327-332 (1995)).
Each of stearic acid and cholesterol, used as representatives of fatty acids that are horny layer intercellular lipids, as well as a sample to be evaluated was weighed to give an equimolar mixture, and an ion-exchange water was added thereto in an amount of 30 wt % of the weight of the lipids. The mixture was heat-melted and then cooled to give an evaluation sample.
Wide-angle X-ray diffraction apparatus ((PANalytical) X' Pert MRD High Resolution X-ray Diffractometer)
Small-angle X-ray scattering apparatus ((NANO Viewer manufactured by RIGAKU Corporation), Small-angle X-ray scattering)
In the case where the wide-angle X-ray diffraction apparatus was used, sampling for measurement was conducted by finely grinding a sample in an agate mortar and packing the sample in a measurement cell to give a flat surface. In the case of small-angle X-ray scattering apparatus, the sample was packed in a cell made of stainless steel having grid openings of approximately 4 mm in width and 2 mm in depth.
Conditions for wide-angle X-ray diffraction measurement: measurement cell: a cell for exclusive use made of stainless steel, applied voltage: 45 kV, applied current: 40 mA.
measured range: 2θ=3° to 45°, measurement speed: 2θ=1°/min.
Conditions for small-angle X-ray measurement: measurement cell: a sample that was packed in a stainless steel holder having grid openings was measured.
applied voltage: […], applied current: 30 mA, X-ray irradiation period: 30 minutes, measured at a camera length of from 450 to 650 mm using a detector with an imaging plate.
In a wide-angle X-ray diffraction measurement, a symbol A was assigned to a sample wherein diffraction peaks originating from crystals of stearic acid and cholesterol disappeared and only the peaks originating from a lamellar structure were observed near 2θ=22°, a symbol B was assigned to a sample wherein diffraction peaks originating from crystals of stearic acid and cholesterol remained but peaks originating approximately from a lamellar structure were observed, a symbol C was assigned to a sample wherein peaks originating from a lamellar structure were observed only partly, and a symbol D was assigned to a sample wherein no peaks originating from a lamellar structure were observed. In addition, in a small-angle X-ray measurement, a symbol E was assigned to a sample wherein diffraction peaks originating from a periodic structure of lamellar structure were observed, and a symbol F was assigned to a sample wherein no diffraction peaks were observed.

[2] = Evaluation as to occlusion (TEWL-inhibition), lipid-impregnated filter paper; conditions: filter paper immersed in 10% lipid mixture solution; average of three measurements; versus solvent-only filter
Experimental: Evaluation as to occlusion was conducted according to the method by Akasaki et al. (Fragrance Journal, extra edition, No. 13, p. 65, 1994).
Each of stearic acid and cholesterol, used as representatives of fatty acids that are horny layer intercellular lipids, and a sample to be evaluated was weighed into a screw tube, and a mixed liquid of chloroform and methanol (9:1 by volume) was used to give a 10% solution of the lipid mixture (w/v). A filter paper ([…] Co. Ltd., No. 5C, ϕ=21 mm) was immersed in the 10% solution, and then taken out, dried at room temperature, heated at 90° C. for one hour, hydrated by a water sprayer, heat-treated at 60° C. for 12 hours, and then cooled. The filter thus prepared was set in a vial charged with ion-exchange water (20 ml), and the weight of the filter was measured over time to calculate an amount of TEWL. As a control, was measured an amount of TEWL of a filter which had been immersed only in a mixed liquid of chloroform and methanol (9:1 by volume). A control rate of TEWL (%) was calculated according to the following equation: Control rate of TEWL (%)=(1−amount of TEWL of evaluated sample/amount of TEWL of control)×100. 2) Results

[3] = Measurement on bonded water content (differential scan calorimetric analysis); assay type: physicochemical; conditions: equimolar mixture of stearic acid, cholesterol and sample plus ion-exchange water; DSC
Experimental: Measurement on bonded water content was conducted according to the method by Akasaki et al. (Fragrance Journal, extra edition, No. 13, pp. 66-67, 1994).
1) Differential scan calorimetric analyzer: (DSC6100 (SII Seiko Instruments Inc.)).
A sample prepared by adding ion-exchange water to an equimolar mixture of stearic acid and cholesterol, both used as representatives of fatty acids that are a horny layer intercellular lipid, and a sample to be evaluated, was encapsulated in a cell, and the water content thereof was measured. The temperature of the sample was raised from −40° C. at a rate of 1° C./minute to obtain an enthalpy change accompanied by the temperature raise. A bonded water content was determined from the relation between a water content of a lipid mixture (an amount of moisture absorbed) and a change of peak of enthalpy (melting heat), and an enthalpy change was obtained from the point 0.

Q: Which “Evaluation of X-ray diffraction measurement: small-angle X-ray measurement” value [1] does the source give for “(E)-2-(hexadeca/octadeca)-2-en-1-yl)-N,N,-bis(2-hydroxyethyl)succinamide [Compound 1]” here?
A: E

Q: And the “Evaluation of X-ray diffraction measurement: wide-angle X-ray measurement” value [1]?
A: B

Q: Which TEWL inhibition rate [2] does the source give for “(E)-2-(hexadeca/octadeca)-2-en-1-yl)-N-hexadecyl-N-(2-hydroxyethyl)succinamide [Comparative compound 4]” here?
A: 27.4%

Q: With “2-(hexadecyl/octadecyl)-N,N,-bis(2-hydroxyethyl)succinamide [Compound 2]” as the compound, how does the “Evaluation of X-ray diffraction measurement: small-angle X-ray measurement” value [1] read?
A: E

Q: What about the “Evaluation of X-ray diffraction measurement: wide-angle X-ray measurement” value [1] of the same compound?
A: B

Q: Which TEWL inhibition rate [2] does the source give for “(E)-2-(hexadeca/octadeca)-2-en-1-yl)-N,N,-bis(2-(2-hydroxy-ethoxy)ethyl)succinamide [Comparative Compound 2, reference compound]” here?
A: 24.2%

Q: And the “Evaluation of X-ray diffraction measurement: small-angle X-ray measurement” value [1]?
A: F

Q: What about the “Evaluation of X-ray diffraction measurement: wide-angle X-ray measurement” value [1] of the same compound?
A: D

Q: For `CCCCCCCCCCCCC/C=C/CC(CC(=O)NCCCCCCCCCCCCCCCC)C(=O)NCCCCCCCCCCCCCCCC` (centres unmarked) [Comparative Compound 3, (E)-2-(hexadeca-2-en-1-yl)-N,N,-dihexadecylsuccinamide, reference compound], which “Evaluation of X-ray diffraction measurement: small-angle X-ray measurement” value [1] is on record?
A: F

Q: What about the “Evaluation of X-ray diffraction measurement: wide-angle X-ray measurement” value [1] of the same compound?
A: D

Q: For “(E)-2-(eicosa/docosa/tetracosa)-2-en-1-yl)-N,N,-bis(2-hydroxyethyl)succinamide [Compound 5]”, which “Evaluation of X-ray diffraction measurement: small-angle X-ray measurement” value [1] is on record?
A: E

Q: What about the “Evaluation of X-ray diffraction measurement: wide-angle X-ray measurement” value [1] of the same compound?
A: A

Q: Which results are given for `CCCCCCCCCCCCCCCCOCC(O)CN(CCO)C(=O)CCCCCCCCCCCCCCC` (centres unmarked) [Sphingolipid E, reference compound]?
A: TEWL inhibition rate [2]: 32.8%; Evaluation of X-ray diffraction measurement: small-angle X-ray measurement [1]: E; Evaluation of X-ray diffraction measurement: wide-angle X-ray measurement [1]: A; Bonded water content [3]: 7.1 % by mass

Q: Which “Evaluation of X-ray diffraction measurement: small-angle X-ray measurement” value [1] does the source give for “(E)-N,N,-bis(1,3-dihydroxy-2-(hydroxymethyl)propan-2-yl)-2-((hexadeca/octadeca)-2-en-1-yl)-succinamide [Compound 7]” here?
A: E

Q: What about the “Evaluation of X-ray diffraction measurement: wide-angle X-ray measurement” value [1] of the same compound?
A: A

Q: With “(E)-N,N,-bis(1,3-dihydroxy-2-methylpropan-2-yl)-2-((hexadeca/octadeca)-2-en-1-yl)-succinamide [Compound 6]” as the compound, how does the “Evaluation of X-ray diffraction measurement: small-angle X-ray measurement” value [1] read?
A: E

Q: What about the “Evaluation of X-ray diffraction measurement: wide-angle X-ray measurement” value [1] of the same compound?
A: B

Q: Which “Evaluation of X-ray diffraction measurement: small-angle X-ray measurement” value [1] does the source give for “(E)-N,N,-bis(3-hydroxypropyl)-2-((hexadeca/octadeca)-2-en-1-yl)-succinamide [Compound 3]” here?
A: E

Q: What about the “Evaluation of X-ray diffraction measurement: wide-angle X-ray measurement” value [1] of the same compound?
A: C

Q: Which “Evaluation of X-ray diffraction measurement: small-angle X-ray measurement” value [1] does the source give for “(E)-2-(hexadeca/octadeca)-2-en-1-yl)-N,N,-bis(1-hydroxypropan-2-yl)succinamide [Compound 4]” here?
A: E

Q: What about the “Evaluation of X-ray diffraction measurement: wide-angle X-ray measurement” value [1] of the same compound?
A: C

Q: With `CCCCCCCCCCCCCCCC(=O)NCCO` [Comparative Compound 1, N-(2-hydroxyethyl)palmitamide, reference compound] as the compound, how does the “Evaluation of X-ray diffraction measurement: small-angle X-ray measurement” value [1] read?
A: F

Q: What about the “Evaluation of X-ray diffraction measurement: wide-angle X-ray measurement” value [1] of the same compound?
A: D
